Measured values: patent US9751861B2, “N1-(3,3,3-trifluoro-2-hydroxo-2-methylpropionyl)-piperidine derivatives as inhibitors of pyruvate dehydrogenase kinase” (MERCK PATENT GMBH, priority 2013, dated 2017)
pIC50, pKd: −log10 of the molar value.

What was measured:
[1] = biological target: T1, human PDHK2 (12-407) (Homo sapiens, UniProt Q15119); assay: Isothermal titration calorimetry (ITC) binding; conditions: 30° C., pH 7.5
T1 construct: The human PDHK2 (12-407) was produced in E. coli; His-tag (cleaved yes); made in house; host or cells: E. coli
Summary of the method: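 Untagged PDHK2 (12-407) from E. coli at 50 μM titrated into 5 μM compound at 30° C in pH 7.5 HEPES/KCl/MgCl2/phosphate buffer, ≤1% DMSO. One-site fit gave KA, ΔH^obs and N after heat-of-dilution correction; protein concentration referenced to a standard inhibitor and compound concentration adjusted to 1:1 stoichiometry.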

[2] = biological target: T2, PDHK2 (Homo sapiens, UniProt Q15119); assay: Biochemical activity testing of PDHK2: PDC inactivation assay; conditions: human rec PDHK2, PDC from porcine heart, ATP 5 μM; read-out: IC50 PDHK2 (enzyme assay)
T2 construct: purchased Carna Bioscience
Summary of the method: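 Human recombinant PDHK2 (137 nM final) preincubated 30 min at RT with porcine heart PDC (20 mU/ml) and compound in pH 7.0 phosphate buffer, then phosphorylated with 5 μM ATP for 30 min at 37 °C. Residual PDC activity read as NADH fluorescence increase (Ex 340/Em 450) over 45 min; inhibitor-free reaction as full value, 3 mM DCA as zero, IC50 derived.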

[3] = system: PDH-Elalpha (pSer300); assay: Cellular immunofluorescence assay in HEK293T cells; type: cell-based; conditions: Homo sapiens, HEK-293T, 5 hours incubation, anti-PDH-E1alpha pSer300 immunofluorescence, read-out: IC50 (cell data)
Summary of the method: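 HEK293T cells were exposed to compound for 5 hours, then fixed, permeabilised and immunostained for PDH-Elalpha pSer300 with Hoechst counterstain, read by laser scanning cytometry. Percent effect was normalized to a pharmacological inhibitor control and fitted to dose-response curves.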

Structure (SMILES) | pKd [1] | pIC50 [2] | pIC50 [3]
C[C@@](O)(C(=O)N1CCC(c2ccnn2-c2ncc(Br)cn2)CC1)C(F)(F)F [Compound A19, (R)-1-{4-[2-(5-Bromo-pyrimidin-2-yl)-2H-pyrazol-3-yl]-piperidin-1-yl}-3,3,3-trifluoro-2-hydroxy-2-methyl-propan-1-one] | > 6.52 | 5.52 to 6.52 | 5.52 to 6.52
C[C@@](O)(C(=O)N1CCC(c2cc(C(F)(F)F)nn2-c2ccccc2)CC1)C(F)(F)F [Compound A43, (R)-1-[4-(2-Phenyl-5-trifluoromethyl-2H-pyrazol-3-yl)-piperidin-1-yl]-3,3,3-trifluoro-2-hydroxy-2-methyl-propan-1-one] | > 6.52 | 5.52 to 6.52 | 5.52 to 6.52
Cc1ccc(-n2nccc2C2CCN(C(=O)[C@@](C)(O)C(F)(F)F)CC2)nc1 [Compound A83, (R)-3,3,3-Trifluoro-2-hydroxy-2-methyl-1-{4-[2-(5-methyl-pyridin-2-yl)-2H-pyrazol-3-yl]-piperidin-1-yl}-propan-1-one] | > 6.52 | 5.52 to 6.52 | 5.52 to 6.52
C[C@@](O)(C(=O)N1CCC(c2ccnn2C2CCCCC2)CC1)C(F)(F)F [Compound A37, (R)-1-[4-(2-Cyclohexyl-2H-pyrazol-3-yl)-piperidin-1-yl]-3,3,3-trifluoro-2-hydroxy-2-methyl-propan-1-one] | > 6.52 | 5.52 to 6.52 | 4.30 to 5.52
C[C@@](O)(C(=O)N1CCC(c2ccnn2-c2ccc(OCC(F)(F)F)cc2)CC1)C(F)(F)F [Compound A49, (R)-3,3,3-Trifluoro-2-hydroxy-2-methyl-1-(4-{2-[4-(2,2,2-trifluoro-ethoxy)phenyl]-2H-pyrazol-3-yl}-piperidin-1-yl)-propan-1-one] | > 6.52 | > 6.52 | 5.52 to 6.52
CCc1ccc(-n2nccc2C2CCN(C(=O)[C@@](C)(O)C(F)(F)F)CC2)cc1 [Compound A24, (R)-1-{4-[2-(4-Ethyl-phenyl)-2H-pyrazol-3-yl]-piperidin-1-yl}-3,3,3-trifluoro-2-hydroxy-2-methyl-propan-1-one] | > 6.52 | > 6.52 | 5.52 to 6.52
C[C@@H]1CN(C(=O)[C@@](C)(O)C(F)(F)F)CC[C@@H]1c1ccn(-c2ccc(F)cc2)n1 [Compound A46, (R)-3,3,3-Trifluoro-1-{(3S,4S)-4-[1-(4-fluoro-phenyl)-1H-pyrazol-3-yl]-3-methyl-piperidin-1-yl}-2-hydroxy-2-methyl-propan-1-one] | > 6.52 | > 6.52 | 5.52 to 6.52
Cc1ccc(-n2nccc2C2CCN(C(=O)[C@@](C)(O)C(F)(F)F)CC2)cc1 [Compound A1, (R)-3,3,3-trifluoro-2-hydroxy-2-methyl-1-[4-(2-p-tolyl-2H-pyrazol-3-yl)-piperidin-1-yl]-propan-1-one] | > 6.52 | > 6.52 | 5.52 to 6.52
COc1ccc(-n2nccc2C2CCN(C(=O)[C@@](C)(O)C(F)(F)F)CC2)cc1Cl [Compound A48, (R)-3,3,3-Trifluoro-2-hydroxy-1-{4-[2-(3-chloro-4-methoxy-phenyl)-2H-pyrazol-3-yl]-piperidin-1-yl}-2-methyl-propan-1-one] | > 6.52 | > 6.52 | 5.52 to 6.52
C[C@@](O)(C(=O)N1CCC(c2ccnn2-c2cccc(Cl)c2F)CC1)C(F)(F)F [Compound A15, (R)-1-{4-[2-(3-Chloro-2-fluoro-phenyl)-2H-pyrazol-3-yl]-piperidin-1-yl}-3,3,3-trifluoro-2-hydroxy-2-methyl-propan-1-one] | > 6.52 | > 6.52 | > 6.52
C[C@@](O)(C(=O)N1CCC(c2cc(C(F)(F)F)nn2-c2ccc(F)cc2)CC1)C(F)(F)F [Compound A42, (R)-1-{4-[2-(4-Fluoro-phenyl)-5-trifluoromethyl-2H-pyrazol-3-yl]-piperidin-1-yl}-3,3,3-trifluoro-2-hydroxy-2-methyl-propan-1-one] | > 6.52 | 5.52 to 6.52 | 5.52 to 6.52
C[C@@](O)(C(=O)N1CCC(c2ccnn2-c2ccccc2Cl)CC1)C(F)(F)F [Compound A11, (R)-1-{4-[2-(2-Chloro-phenyl)-2H-pyrazol-3-yl]-piperidin-1-yl}-3,3,3-trifluoro-2-hydroxy-2-methyl-propan-1-one] | > 6.52 | > 6.52 | 5.52 to 6.52
C[C@@](O)(C(=O)N1CCC(c2ccnn2-c2ccc(F)cc2F)CC1)C(F)(F)F [Compound A26, (R)-1-{4-[2-(2,4-Difluoro-phenyl)-2H-pyrazol-3-yl]-piperidin-1-yl}-3,3,3-trifluoro-2-hydroxy-2-methyl-propan-1-one] | > 6.52 | > 6.52 | 5.52 to 6.52
Cc1cc(C2CCN(C(=O)[C@@](C)(O)C(F)(F)F)CC2)n(-c2ccc(F)cc2)n1 [Compound A41, (R)-1-{4-[2-(4-Fluoro-phenyl)-5-methyl-2H-pyrazol-3-yl]-piperidin-1-yl}-3,3,3-trifluoro-2-hydroxy-2-methyl-propan-1-one] | > 6.52 | > 6.52 | 5.52 to 6.52
CC(C)c1ccc(-n2nccc2C2CCN(C(=O)[C@@](C)(O)C(F)(F)F)CC2)cc1 [Compound A22, (R)-3,3,3-Trifluoro-2-hydroxy-1-{4-[2-(4-isopropyl-phenyl)-2H-pyrazol-3-yl]-piperidin-1-yl}-2-methyl-propan-1-one] | > 6.52 | 5.52 to 6.52 | 5.52 to 6.52
C[C@@](O)(C(=O)N1CCC(c2ccnn2-c2ccc(C(F)(F)F)cc2Cl)CC1)C(F)(F)F [Compound A18, (R)-1-{4-[2-(2-Chloro-4-trifluoromethyl-phenyl)-2H-pyrazol-3-yl]-piperidin-1-yl}-3,3,3-trifluoro-2-hydroxy-2-methyl-propan-1-one] | > 6.52 | > 6.52 | 5.52 to 6.52
COc1ccc(-n2nccc2C2CCN(C(=O)[C@@](C)(O)C(F)(F)F)CC2)c(F)c1 [Compound A28, (R)-3,3,3-Trifluoro-1-{4-[2-(2-fluoro-4-methoxy-phenyl)-2H-pyrazol-3-yl]-piperidin-1-yl}-2-hydroxy-2-methyl-propan-1-one] | > 6.52 | > 6.52 | 5.52 to 6.52

Other lines, results leading:

pKd [1] | pIC50 [2] | pIC50 [3] | Structure (SMILES)
> 6.52 | 5.52 to 6.52 | 4.30 to 5.52 | C[C@@](O)(C(=O)N1CCC(c2conc2-c2ccccc2)CC1)C(F)(F)F [Compound A128, (R)-3,3,3-Trifluoro-2-hydroxy-2-methyl-1-[4-(3-phenyl-isoxazol-4-yl)-piperidin-1-yl]-propan-1-one]
> 6.52 | 5.52 to 6.52 | 4.30 to 5.52 | C[C@@](O)(C(=O)N1CCC(c2ccnn2-c2nc3ccccc3s2)CC1)C(F)(F)F [Compound A117, (R)-1-[4-(2-Benzothiazol-2-yl-2H-pyrazol-3-yl)-piperidin-1-yl]-3,3,3-trifluoro-2-hydroxy-2-methyl-propan-1-one]
> 6.52 | 5.52 to 6.52 | 5.52 to 6.52 | C[C@@](O)(C(=O)N1CCC(c2cncn2-c2ccc(Cl)cc2)CC1)C(F)(F)F [Compound A125, (R)-1-{4-[3-(4-Chloro-phenyl)-3H-imidazol-4-yl]-piperidin-1-yl}-3,3,3-trifluoro-2-hydroxy-2-methyl-propan-1-one]
> 6.52 | > 6.52 | > 6.52 | COc1ccc(-n2nccc2[C@H]2CCN(C(=O)[C@@](C)(O)C(F)(F)F)C[C@H]2C)cn1 [Compound A113, (R)-3,3,3-Trifluoro-1-{(3S,4S)-4-[2-(6-methoxy-pyridin-3-yl)-2H-pyrazol-3-yl]-3-methyl-piperidin-1-yl}-2-hydroxy-2-methyl-propan-1-one]
> 6.52 | > 6.52 | > 6.52 | C[C@@H]1CN(C(=O)[C@@](C)(O)C(F)(F)F)CC[C@@H]1c1ccnn1-c1ccccc1 [Compound A106, (R)-3,3,3-Trifluoro-2-hydroxy-2-methyl-1-[(3S,4S)-3-methyl-4-(2-phenyl-2H-pyrazol-3-yl)-piperidin-1-yl]-propan-1-one]
> 6.52 | 5.52 to 6.52 | 5.52 to 6.52 | C[C@@](O)(C(=O)N1CCC(c2cncn2-c2ccc(C(F)(F)F)cc2)CC1)C(F)(F)F [Compound A127, (R)-3,3,3-Trifluoro-2-hydroxy-2-methyl-1-{4-[3-(4-trifluoromethyl-phenyl)-3H-imidazol-4-yl]-piperidin-1-yl}-propan-1-one]
> 6.52 | 5.52 to 6.52 | 5.52 to 6.52 | C[C@@](O)(C(=O)N1CCC(c2cncn2-c2ccc(F)cc2F)CC1)C(F)(F)F [Compound A130, (R)-1-{4-[3-(2,4-Difluoro-phenyl)-3H-imidazol-4-yl]-piperidin-1-yl}-3,3,3-trifluoro-2-hydroxy-2-methyl-propan-1-one]
> 6.52 | 5.52 to 6.52 | 5.52 to 6.52 | CC(C)(O)c1ccc(-n2nccc2C2CCN(C(=O)[C@@](C)(O)C(F)(F)F)CC2)c(F)c1 [Compound A92, (R)-3,3,3-Trifluoro-1-[4-[2-[2-fluoro-4-(1-hydroxy-1-methyl-ethyl)phenyl]-2H-pyrazol-3-yl]-1-piperidyl]-2-hydroxy-2-methyl-propan-1-one]
